# Measurements: PubChem BioAssay (NCI)
#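 Where inhibition never reached the appropriate level, the endpoint shown equals the highest concentration tested. Otherwise, values were interpolated linearly from a five-concentration, 48-hour dose response in 96-well plates. GI50 = concentration required for 50% inhibition of growth. At the TGI there is no net growth.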
# How the values were obtained:
# Experiment in all cases: NCI tumour cell line growth inhibition, 48 h
# PC-3 prostate = system: PC-3 prostate
# MCF7 breast = system: MCF7 breast
# EKVX NSCLC = system: EKVX NSCLC
# OVCAR-8 ovarian = system: OVCAR-8 ovarian
# HOP-62 NSCLC = system: HOP-62 NSCLC
# A498 renal = system: A498 renal
# HCC-2998 colon = system: HCC-2998 colon
# NCI-H23 lung = system: NCI-H23 lung
# SK-OV-3 ovarian = system: SK-OV-3 ovarian
# K-562 leukemia = system: K-562 leukemia
Compound,TGI (PC-3 prostate) [µM],TGI (MCF7 breast) [µM],TGI (EKVX NSCLC) [µM],TGI (OVCAR-8 ovarian) [µM],TGI (HOP-62 NSCLC) [µM],TGI (A498 renal) [µM],TGI (HCC-2998 colon) [µM],TGI (NCI-H23 lung) [µM],TGI (SK-OV-3 ovarian) [µM],TGI (K-562 leukemia) [µM],GI50 (MCF7 breast) [µM],GI50 (EKVX NSCLC) [µM],GI50 (OVCAR-8 ovarian) [µM],GI50 (HOP-62 NSCLC) [µM],GI50 (A498 renal) [µM],GI50 (HCC-2998 colon) [µM],GI50 (NCI-H23 lung) [µM],GI50 (SK-OV-3 ovarian) [µM],GI50 (K-562 leukemia) [µM]
Oc1ccc(C(=C(Br)c2ccccc2)c2ccc(O)cc2)cc1,19.9,12.4,26.2,22.2,22.2,34.2,21.2,23.7,16.9,9.07,,,,,,,,,
O=C1c2cc3c(cc2-c2c1c1ccc(Cl)cc1c(=O)n2C[C@H](O)CO)OCO3,,0.759,1.52,2.98,1.51,0.16,0.701,0.714,1.66,> 100,< 0.01,0.153,0.0521,0.022,0.0387,0.122,0.0366,0.0444,0.0457
COC(=O)c1cc2c(cc1Cl)Sc1nnc(Nc3ccccc3)n1S2(=O)=O,10,8.94,19.9,> 33.1,5.52,12.9,4.59,6.71,19.4,> 42,,,,,,,,,
C=C(C#N)C(=O)OCC(CC)CC.C=C(C#N)C(=O)OCC(CC)CC.CS(C)=O.CS(C)=O.Nc1c(N=Nc2ccc(-c3ccc(N=Nc4cc(S(=O)(=O)[O-])c5ccccc5c4N)cc3)cc2)cc(S(=O)(=O)[O-])c2ccccc12.[Pt+2],,> 100,63.3,42.3,> 100,> 100,> 100,> 100,> 100,> 100,24.2,26,19.2,> 82.8,> 71.4,48.9,40.7,97.9,32.6
O=C1c2cc(O)c(O)cc2O[C@H](c2ccc(O)c(O)c2)[C@H]1O,> 100,> 100,> 100,> 100,> 100,> 100,> 100,> 100,> 100,> 100,,,,,,,,,
Cc1ccc(S(=O)(=O)N(CC(O)COc2ccccc2)c2c(F)cccc2F)cc1 (centres undefined),36.9,30.7,95.7,35.5,42.7,38.8,47.6,44.8,41.3,> 100,,,,,,,,,
CCN(CC)CCNc1ccc2ncn3c4ccc(O)cc4c(=O)c1c23,14.5,12.6,21.9,9.55,11.6,13.7,18.1,13.8,18.2,34.4,,,,,,,,,
COc1ccc2nc3c(c(N)c2c1)C1CCC3C1(C)C (centres undefined),> 100,> 100,> 100,> 100,47.9,70.7,31.9,> 100,> 100,> 100,,,,,,,,,
CSCCC(C(=O)O)N(C)C (centres undefined),> 100,> 100,> 100,> 100,> 100,> 100,,> 100,> 100,> 100,,,,,,,,,
O=c1[nH]c2[nH]c(=S)[nH]c(=S)c2[nH]1,> 100,,> 100,> 100,> 100,> 100,> 100,> 100,,> 100,,,,,,,,,
CN1C(=O)CC(=O)N1/C(=C/c1ccccc1)c1ccccc1,> 100,> 100,> 100,> 100,> 100,,> 100,> 100,> 100,> 100,,,,,,,,,
O=C(CSCC(=O)N/N=C/c1cccc(O)c1)N/N=C/c1cccc(O)c1,> 100,> 100,> 100,> 100,> 100,> 100,> 100,> 100,> 100,> 100,,,,,,,,,
Cc1ccc(S(=O)(=O)OC2CC(C(C)(C)C)CCC2c2ccccc2)cc1 (centres undefined),> 100,> 100,> 100,> 100,> 100,> 100,,> 100,> 100,> 100,,,,,,,,,
COc1ccc2nc3cc(Cl)ccc3c(NC(C)CCCN(CCCl)CCCl)c2c1 (centres undefined),,,18.2,4.32,7.38,18.7,9.61,2.89,6.59,2.3,,,,,,,,,
COc1ccc(OC)c2sc(N3C(=O)/C(=C/c4cccc(Oc5ccccc5)c4)N=C3c3ccccc3)nc12,> 100,> 100,> 100,> 100,> 100,> 100,> 100,> 100,> 100,> 100,,,,,,,,,
